Laboratory results taken from ChEMBL document CHEMBL2163268, “Structure-based design of a novel series of potent, selective inhibitors of the class I phosphatidylinositol 3-kinases” (J Med Chem, 2012).

Assays:
[1] = target: Phosphatidylinositol 4,5-bisphosphate 3-kinase catalytic subunit alpha isoform (Homo sapiens, UniProt P42336); test: biochemical
Description: Inhibition of human N-terminal poly-His tagged-PI3Kalpha expressed in Sf9 baculovirus system co-expressing p85alpha after 20 mins by AlphaScreen assay

[2] = in vitro; conditions: rat, liver microsomes
Description: Intrinsic clearance in rat liver microsomes

[3] = target: Phosphatidylinositol 4,5-bisphosphate 3-kinase catalytic subunit beta isoform (Homo sapiens, UniProt P42338); test: biochemical
Description: Inhibition of human N-terminal poly-His tagged-PI3Kbeta expressed in Sf9 baculovirus system co-expressing p85alpha after 20 mins by AlphaScreen assay

[4] = target: Phosphatidylinositol 4,5-bisphosphate 3-kinase catalytic subunit gamma isoform (Homo sapiens, UniProt P48736); test: biochemical
Description: Inhibition of human N-terminal poly-His tagged-PI3Kgamma expressed in Sf9 baculovirus system co-expressing p85alpha after 20 mins by AlphaScreen assay

[5] = target: Serine/threonine-protein kinase B-raf (Homo sapiens, UniProt P15056, V600E)
[6] = target: T1, Phosphatidylinositol 4,5-bisphosphate 3-kinase catalytic subunit delta isoform (Homo sapiens, UniProt O00329); test: biochemical
T1 sequence (O00329 whole entry): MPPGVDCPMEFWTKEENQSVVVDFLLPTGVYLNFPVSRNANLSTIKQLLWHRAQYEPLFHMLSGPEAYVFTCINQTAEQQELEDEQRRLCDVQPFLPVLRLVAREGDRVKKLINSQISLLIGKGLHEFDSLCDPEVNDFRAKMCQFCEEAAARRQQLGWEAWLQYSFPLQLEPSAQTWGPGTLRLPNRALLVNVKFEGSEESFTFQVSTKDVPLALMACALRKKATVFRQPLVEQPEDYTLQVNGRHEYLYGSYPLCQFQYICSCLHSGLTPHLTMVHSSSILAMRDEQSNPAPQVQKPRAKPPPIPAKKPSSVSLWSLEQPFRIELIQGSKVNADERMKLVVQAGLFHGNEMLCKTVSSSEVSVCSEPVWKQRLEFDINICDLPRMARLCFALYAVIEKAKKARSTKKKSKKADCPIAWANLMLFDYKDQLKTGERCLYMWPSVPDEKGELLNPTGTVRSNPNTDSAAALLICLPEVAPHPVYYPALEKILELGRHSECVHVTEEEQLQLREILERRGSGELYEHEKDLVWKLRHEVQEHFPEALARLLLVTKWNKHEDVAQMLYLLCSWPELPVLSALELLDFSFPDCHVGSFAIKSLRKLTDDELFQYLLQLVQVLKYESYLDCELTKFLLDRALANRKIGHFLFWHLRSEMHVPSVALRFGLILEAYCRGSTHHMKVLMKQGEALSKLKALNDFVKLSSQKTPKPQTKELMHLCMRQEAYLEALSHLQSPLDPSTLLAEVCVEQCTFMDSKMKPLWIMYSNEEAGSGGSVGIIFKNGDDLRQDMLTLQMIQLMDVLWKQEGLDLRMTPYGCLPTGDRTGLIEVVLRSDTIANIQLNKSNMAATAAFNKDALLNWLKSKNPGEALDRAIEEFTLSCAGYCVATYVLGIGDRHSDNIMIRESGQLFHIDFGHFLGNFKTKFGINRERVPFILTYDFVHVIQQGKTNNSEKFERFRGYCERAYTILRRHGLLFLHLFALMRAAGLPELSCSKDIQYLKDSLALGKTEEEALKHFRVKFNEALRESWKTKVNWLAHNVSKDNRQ
Description: Inhibition of human N-terminal poly-His tagged-PI3Kdelta expressed in Sf9 baculovirus system co-expressing p85alpha after 20 mins by AlphaScreen assay

[7] = target: Serine/threonine-protein kinase mTOR (Homo sapiens, UniProt P42345)
Description: Inhibition of recombinant GST-tagged mTOR-mediated 4EBP1 phosphorylation after 90 mins by FRET assay

[8] = Oral bioavailability in rat at 2 mg/kg; format: ADME, organism-based; conditions: in vivo
[9] = in vivo; conditions: rat, iv, 1 mg/kg
Description: Volume of distribution at steady state in rat at 1 mg/kg, iv

[10] = in vivo; conditions: rat, plasma, po, 2 mg/kg
[11] = in vivo; conditions: rat, iv, 1 mg/kg; remark: listed apart in the source
Description: Clearance in rat at 1 mg/kg, iv

[12] = in vivo; conditions: rat, iv, 1 mg/kg; remark: listed apart in the source
Description: Mean residence time in rat at 1 mg/kg, iv

[13] = target: Phosphatidylinositol 3-kinase catalytic subunit type 3 (Homo sapiens, UniProt Q8NEB9)
Phosphatidylinositol 3-kinase catalytic subunit type 3, sequence (Q8NEB9 whole entry): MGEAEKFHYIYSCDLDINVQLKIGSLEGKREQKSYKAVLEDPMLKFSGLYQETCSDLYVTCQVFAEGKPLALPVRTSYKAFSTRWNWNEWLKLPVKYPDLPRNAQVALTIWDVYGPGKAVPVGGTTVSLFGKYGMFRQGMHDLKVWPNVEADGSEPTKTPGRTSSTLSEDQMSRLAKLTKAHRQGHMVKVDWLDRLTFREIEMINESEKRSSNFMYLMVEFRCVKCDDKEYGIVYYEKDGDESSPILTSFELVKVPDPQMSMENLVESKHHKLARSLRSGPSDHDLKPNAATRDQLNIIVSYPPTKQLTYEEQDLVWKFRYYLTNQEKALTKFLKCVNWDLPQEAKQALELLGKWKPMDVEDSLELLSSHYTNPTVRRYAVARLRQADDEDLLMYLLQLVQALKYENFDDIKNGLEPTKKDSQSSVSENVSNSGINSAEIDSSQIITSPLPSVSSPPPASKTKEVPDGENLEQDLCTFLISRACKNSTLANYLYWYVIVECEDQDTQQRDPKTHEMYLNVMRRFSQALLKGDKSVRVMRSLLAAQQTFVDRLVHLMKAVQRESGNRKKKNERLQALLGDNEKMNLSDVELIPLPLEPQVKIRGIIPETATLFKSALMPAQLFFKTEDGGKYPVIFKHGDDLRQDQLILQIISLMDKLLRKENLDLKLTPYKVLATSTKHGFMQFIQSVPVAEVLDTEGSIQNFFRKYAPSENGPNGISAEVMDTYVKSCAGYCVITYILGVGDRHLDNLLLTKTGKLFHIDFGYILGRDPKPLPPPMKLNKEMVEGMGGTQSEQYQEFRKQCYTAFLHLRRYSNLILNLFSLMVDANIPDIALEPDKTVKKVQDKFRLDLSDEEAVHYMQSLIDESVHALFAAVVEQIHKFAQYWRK
Description: Inhibition of human VPS34 after 30 mins by fluorescence-based immunoassay

Phosphatidylinositol 4,5-bisphosphate 3-kinase catalytic subunit alpha isoform, sequence (P42336 whole entry, canonical isoform): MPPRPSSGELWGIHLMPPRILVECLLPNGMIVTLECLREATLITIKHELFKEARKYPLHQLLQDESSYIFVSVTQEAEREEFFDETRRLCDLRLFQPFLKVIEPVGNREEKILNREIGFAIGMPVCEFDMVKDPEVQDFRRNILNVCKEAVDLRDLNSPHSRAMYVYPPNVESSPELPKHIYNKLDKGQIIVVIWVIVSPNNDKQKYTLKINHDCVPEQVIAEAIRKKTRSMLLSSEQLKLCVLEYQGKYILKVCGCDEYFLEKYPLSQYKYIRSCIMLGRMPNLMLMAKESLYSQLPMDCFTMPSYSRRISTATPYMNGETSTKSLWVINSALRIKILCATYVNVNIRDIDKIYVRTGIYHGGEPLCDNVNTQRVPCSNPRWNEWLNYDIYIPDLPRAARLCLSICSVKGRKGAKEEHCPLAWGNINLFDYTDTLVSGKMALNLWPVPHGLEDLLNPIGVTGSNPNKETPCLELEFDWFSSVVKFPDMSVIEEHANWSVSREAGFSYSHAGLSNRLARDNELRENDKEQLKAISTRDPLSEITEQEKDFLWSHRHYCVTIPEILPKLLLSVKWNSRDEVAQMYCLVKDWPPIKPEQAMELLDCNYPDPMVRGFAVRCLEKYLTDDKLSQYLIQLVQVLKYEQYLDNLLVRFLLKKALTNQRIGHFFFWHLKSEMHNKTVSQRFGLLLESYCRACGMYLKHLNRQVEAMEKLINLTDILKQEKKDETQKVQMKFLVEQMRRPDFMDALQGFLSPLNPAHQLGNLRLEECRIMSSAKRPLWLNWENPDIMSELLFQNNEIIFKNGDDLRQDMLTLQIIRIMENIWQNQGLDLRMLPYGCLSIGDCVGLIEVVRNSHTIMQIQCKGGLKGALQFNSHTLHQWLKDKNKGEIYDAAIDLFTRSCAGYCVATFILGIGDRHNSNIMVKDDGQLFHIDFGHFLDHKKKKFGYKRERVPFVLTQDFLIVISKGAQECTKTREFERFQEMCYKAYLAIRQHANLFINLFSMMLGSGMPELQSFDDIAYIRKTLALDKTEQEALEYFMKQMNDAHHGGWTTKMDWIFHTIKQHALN
Phosphatidylinositol 4,5-bisphosphate 3-kinase catalytic subunit beta isoform, sequence (P42338 whole entry, canonical isoform): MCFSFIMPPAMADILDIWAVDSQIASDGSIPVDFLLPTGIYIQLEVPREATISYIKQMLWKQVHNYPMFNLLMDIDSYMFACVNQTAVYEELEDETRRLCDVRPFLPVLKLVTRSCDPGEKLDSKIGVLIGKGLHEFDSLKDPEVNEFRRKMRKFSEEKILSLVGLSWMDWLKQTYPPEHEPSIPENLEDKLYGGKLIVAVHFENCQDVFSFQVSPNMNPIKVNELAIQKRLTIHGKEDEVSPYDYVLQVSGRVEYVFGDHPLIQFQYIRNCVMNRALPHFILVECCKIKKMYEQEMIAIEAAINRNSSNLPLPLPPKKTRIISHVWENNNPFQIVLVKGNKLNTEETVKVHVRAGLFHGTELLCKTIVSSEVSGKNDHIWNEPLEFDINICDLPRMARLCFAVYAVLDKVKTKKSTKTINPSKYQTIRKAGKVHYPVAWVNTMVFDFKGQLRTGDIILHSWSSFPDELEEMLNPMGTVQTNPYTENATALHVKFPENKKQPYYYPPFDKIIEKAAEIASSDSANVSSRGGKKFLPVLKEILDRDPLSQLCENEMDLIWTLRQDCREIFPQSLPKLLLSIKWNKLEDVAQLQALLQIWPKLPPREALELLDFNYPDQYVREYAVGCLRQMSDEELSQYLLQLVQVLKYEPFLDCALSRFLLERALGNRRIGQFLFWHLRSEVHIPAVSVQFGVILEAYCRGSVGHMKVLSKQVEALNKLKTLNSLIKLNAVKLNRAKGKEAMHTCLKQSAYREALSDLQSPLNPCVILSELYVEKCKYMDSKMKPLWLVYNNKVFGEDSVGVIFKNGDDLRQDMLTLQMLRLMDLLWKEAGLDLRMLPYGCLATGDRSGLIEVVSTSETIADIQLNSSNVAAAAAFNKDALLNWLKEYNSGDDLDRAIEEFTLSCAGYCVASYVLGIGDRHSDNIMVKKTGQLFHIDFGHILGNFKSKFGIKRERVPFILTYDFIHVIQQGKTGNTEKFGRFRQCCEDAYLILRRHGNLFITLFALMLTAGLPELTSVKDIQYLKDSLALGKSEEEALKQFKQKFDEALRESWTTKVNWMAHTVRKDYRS
Serine/threonine-protein kinase B-raf, sequence (P15056 2-766 V600E limits assumed): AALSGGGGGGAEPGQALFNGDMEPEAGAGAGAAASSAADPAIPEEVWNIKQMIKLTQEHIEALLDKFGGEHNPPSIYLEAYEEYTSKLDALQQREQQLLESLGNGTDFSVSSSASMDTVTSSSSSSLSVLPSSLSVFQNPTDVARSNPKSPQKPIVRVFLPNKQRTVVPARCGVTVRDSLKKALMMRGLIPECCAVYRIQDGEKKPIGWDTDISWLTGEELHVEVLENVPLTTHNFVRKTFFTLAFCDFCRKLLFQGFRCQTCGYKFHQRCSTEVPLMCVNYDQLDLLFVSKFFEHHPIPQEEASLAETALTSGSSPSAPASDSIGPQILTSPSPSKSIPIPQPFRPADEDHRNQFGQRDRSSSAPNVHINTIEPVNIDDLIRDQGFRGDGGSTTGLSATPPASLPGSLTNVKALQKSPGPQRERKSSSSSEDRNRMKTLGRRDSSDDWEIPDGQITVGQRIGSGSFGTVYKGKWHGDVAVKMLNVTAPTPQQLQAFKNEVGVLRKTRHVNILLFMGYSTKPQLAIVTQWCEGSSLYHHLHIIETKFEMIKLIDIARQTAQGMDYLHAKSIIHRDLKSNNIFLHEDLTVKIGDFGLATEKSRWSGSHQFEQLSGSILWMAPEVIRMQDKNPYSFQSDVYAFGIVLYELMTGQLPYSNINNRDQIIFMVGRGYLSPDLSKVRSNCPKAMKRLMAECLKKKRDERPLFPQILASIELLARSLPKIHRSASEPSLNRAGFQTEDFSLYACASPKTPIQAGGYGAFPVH
Phosphatidylinositol 4,5-bisphosphate 3-kinase catalytic subunit gamma isoform, sequence (P48736 whole entry, canonical isoform): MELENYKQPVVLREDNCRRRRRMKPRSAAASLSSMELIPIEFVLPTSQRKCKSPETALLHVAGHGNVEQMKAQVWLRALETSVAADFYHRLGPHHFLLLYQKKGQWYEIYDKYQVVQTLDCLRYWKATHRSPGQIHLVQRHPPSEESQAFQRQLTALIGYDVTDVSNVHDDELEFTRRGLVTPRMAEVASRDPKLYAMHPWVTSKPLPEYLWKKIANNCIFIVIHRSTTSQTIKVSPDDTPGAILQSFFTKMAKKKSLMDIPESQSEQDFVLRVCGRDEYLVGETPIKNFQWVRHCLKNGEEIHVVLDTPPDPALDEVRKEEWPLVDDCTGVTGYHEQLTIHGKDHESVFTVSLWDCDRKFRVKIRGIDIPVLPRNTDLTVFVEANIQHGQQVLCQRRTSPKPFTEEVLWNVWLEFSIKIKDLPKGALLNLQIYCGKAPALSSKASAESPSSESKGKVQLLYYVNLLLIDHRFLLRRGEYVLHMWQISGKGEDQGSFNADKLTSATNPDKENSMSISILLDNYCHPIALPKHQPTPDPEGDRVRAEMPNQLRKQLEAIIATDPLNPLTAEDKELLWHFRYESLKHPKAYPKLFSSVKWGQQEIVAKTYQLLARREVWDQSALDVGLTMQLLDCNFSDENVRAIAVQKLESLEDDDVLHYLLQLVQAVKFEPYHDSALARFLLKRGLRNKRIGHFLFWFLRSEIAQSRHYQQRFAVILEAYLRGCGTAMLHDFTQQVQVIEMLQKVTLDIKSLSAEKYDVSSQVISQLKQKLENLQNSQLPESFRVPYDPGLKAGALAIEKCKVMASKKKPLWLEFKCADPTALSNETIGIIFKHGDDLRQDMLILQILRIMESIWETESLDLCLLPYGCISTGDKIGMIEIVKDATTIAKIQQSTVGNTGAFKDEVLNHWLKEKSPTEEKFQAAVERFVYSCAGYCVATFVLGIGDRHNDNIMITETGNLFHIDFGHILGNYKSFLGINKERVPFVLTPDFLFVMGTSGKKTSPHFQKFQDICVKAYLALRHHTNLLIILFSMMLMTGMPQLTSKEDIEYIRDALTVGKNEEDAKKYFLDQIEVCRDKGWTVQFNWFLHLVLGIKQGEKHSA

Compound	Ki [1] [µM]	microsomal CLint [2] [µL/min/mg]	Ki [3] [µM]	Ki [4] [µM]	IC50 [5] [µM]	Ki [6] [µM]	IC50 [7] [µM]	bioavailability [8] [%]	Vd [9] [L/kg]	AUC [10] [nM·h]	clearance [11] [L/h/kg]	MRT [12] [h]	IC50 [13] [µM]
Nc1cc(-c2cccnc2Nc2cccc3[nH]ncc23)nc(C(F)(F)F)n1	3.2	76	1.3	3.6	> 1	> 10	> 10						
COc1ccc(N(C)c2ncccc2-c2nc(C)nc(N)n2)cn1	> 10	41	> 10	> 10	> 1	> 10	> 10						
COc1ccc(Nc2ncc(Cc3ccc(S(C)(=O)=O)cc3)cc2-c2nc(C)nc(N)n2)cn1		59		0.007		0.001		2	2.1	40	1.8	1.2	
Cc1cc(-c2cccnc2Nc2cccc(O)c2)nc(N)n1	4.9	118	> 10	2.6	> 1	6	> 10						
Cc1nc(N)nc(-c2cccnc2Nc2cccc(O)c2)n1		80	0.003		> 1	0.009							
Cc1nc(NCC#N)nc(-n2c(Nc3cccc(O)c3)nc3ccccc32)n1	0.016	394	0.043	0.069	1.2	0.011							
Cc1cc(-c2cccnc2Oc2cccc3[nH]ccc23)nc(N)n1	> 10	218	> 10	> 10	> 1	> 10	> 10						
COc1ccc(Nc2ncccc2-c2nc(C)nc3nc[nH]c23)cn1		68	0.045	0.012	> 1								
Cc1nc(N)cc(-c2cccnc2Nc2cccc3[nH]ncc23)n1	0.15	75	0.11	0.091	> 1	0.37	> 10						
COc1ccc(Nc2ncncc2-c2nc(C)nc(N)n2)cn1	0.12	110	0.081	0.059	> 1	0.062							
COc1ccc(Nc2ncccc2-c2nc(C)nc(N)n2)cn1		51	0.023	0.029	> 1	0.037							
COc1ccc(Nc2ncc(CN3CCC(S(C)(=O)=O)CC3)cc2-c2nc(C)nc(N)n2)cn1		20	0.005	0.009		0.003		18	2.9	330	2.5	1.3	
COc1ccc(Nc2ncc(CC3CCN(S(C)(=O)=O)CC3)cc2-c2nc(C)nc(N)n2)cn1		111	0.015	0.008		0.004		3	2.7	40	2.8	1	
COc1ccc(Nc2nccnc2-c2nc(C)nc(N)n2)cn1	0.52	41	0.74	0.09	> 1	0.3							
Cc1nc(-c2cccnc2Nc2cccc3[nH]ncc23)c2nc[nH]c2n1		44		0.012	> 1	0.35							
COc1ccc(Nc2ccccc2-c2nc(C)nc(N)n2)cn1	0.64	190	0.58	0.38	> 1	0.31							
Cc1nc(N)nc(-c2cccnc2Nc2cccc3[nH]ncc23)n1	0.092	65	0.051	0.088	> 1	0.13	> 10						> 9
Cc1nc(N)c(F)c(-c2cccnc2Nc2cccc3[nH]ncc23)n1	0.93	71	0.99	0.33	> 1	0.81	> 10						
COc1ccc(Nc2nccnc2-c2cc(N)nc(C)n2)cn1	0.12	72	0.13	0.058	> 1	0.13							
Cc1nc(-c2cccnc2Nc2cccc3n[nH]cc23)c2c[nH]nc2n1	1.7	56	2.3	0.45	> 1	5	> 10						
Cc1nc(N)cc(-c2cccnc2Nc2cccc(O)c2)n1	0.028	62	0.035	0.051	> 1	0.056	0.36						
Cc1ncnc(-n2c(Nc3cccc(O)c3)nc3ccccc32)n1	0.002	218	0.004	0.004	> 1	0.003	0.007						
Cc1nc(N)nc(-c2cccnc2Nc2cccc3[nH]ccc23)n1		110	0.009	0.045	> 1	0.025							> 9
